Measurements published in patent publication US20250326722A1 (SHANGHAI HANSOH BIOMEDICAL CO., LTD., priority 2022, published 2025).

Tests used:
[1] = tested on: LDLR level in HepG2 cells; test: Effect on the LDLR level in HepG2 cells (ELISA); format: cell-based, human; parameters: concentration or dose not given beside the values; settings: 48 hours incubation, LDLR ELISA of lysate
Experimental: To detect the effect of the compounds on the LDLR protein level.
Envision (PE-Cisbio: 2105-0020), centrifuge (Eppendorf: 5810R), water purifier (THERMO: Pacific T II+Micropure), plate washer (Thermo: […] VERSA), and microplate shaker (Thermo: 88882006)
• 1) HepG2 cell strain was cultured in the complete culture medium at 37° C., 5% CO2 to 70-90% confluence. • 2) The cells were digested and resuspended in the experimental culture medium, inoculation was performed at 25,000 cells/well/200 μL in a 96-well cell culture plate, and the cells were cultured at 37° C., 5% CO2 for 20-24 hours. • 3) The culture medium was removed from the cell culture plate, and the cell culture plate was washed once by adding 200 μl of the experimental culture medium to each well. • 4) Preparation of positive control compound and compound to be tested: the positive control compound and the compound to be tested were diluted on the compound plate. • 5) The diluted compound was added to the cell culture plate at 250 μL per well and incubated at 37° C. and 5% CO2 for 48 hours. • 6) The cell culture medium was removed, the cells were washed with PBS, and 50 μL of the cell lysis buffer and the protein inhibitor were added. • 7) After centrifugation, the lysate was removed and the sample was stored for later use. • 8) Preparation of standard curve: corresponding volumes of Dilution buffer were successively added to respective standard tubes, and the standard was diluted in series by taking the corresponding volume from the original tube or the last concentration tube. • 9) Preparation of washing liquid: 10× Wash buffer was diluted into 1× with Milli-Q for later use. • 10) According to the standard curve wells and sample wells set according to a plate map, 80 μL/well of the corresponding standards and samples were added to the wells, with 2 replicate wells. A well in which no standard was added was used as a background value well. A self-adhesive seal was applied, the plate was placed on a plate shaker at room temperature, gently shaken, uniformly mixed, and incubated for 2 hours. • 11) The plate was placed on the plate washer, the washing liquid was set to 350 μL per well, and the plate was washed 4 times repeatedly. • 12) 200 μL of Human LDLR conjugate was added, a self-adhesive seal was applied, and the plate was placed on the plate shaker, well mixed uniformly, and incubated for 2 hours. • 13) The plate was placed on the plate washer, the washing liquid was set to 350 μL per well, and the plate was washed 4 times repeatedly. • 14) 200 μL/well of Substrate solution was added, and the plate was placed in the dark, applied with a self-adhesive seal, placed on the plate shaker, well mixed uniformly, and incubated for 20 minutes. • 15) 50 μL/well of Stop solution was added and mixed uniformly over 20 min. • 16) The optical density (OD) value in each well was measured in sequence at a wavelength of 450 nm by the microplate reader.
(§1) After the OD values were read by the microplate reader, the OD value of the 0-concentration standard in the standard group was subtracted from the OD values of the standards, control group, and samples to obtain the actual OD values for these wells. A standard curve was plotted with Graphpad and the concentration of the sample was calculated. If the dilution was performed during the sample detection, the calculated sample concentration was necessarily multiplied by the corresponding dilution ratio in the final calculation, which was the actual concentration of the sample. Concentration increase %=(actual concentration in control-actual concentration in sample)/actual concentration in control*100.

[2] = target: PCSK9 secreted by HepG2 cells (Homo sapiens (Human), UniProt Q8NBP7); test: Effect on the concentration of PCSK9 secreted by HepG2 cells (ELISA); format: cell-based; settings: 48 hours incubation, read-out: Inhibitory activity on PCSK9, IC50
Source text: • 1. Experimental objective: To detect the inhibitory effect of the compounds on PCSK9. • 2. Experimental instruments and reagents: • 2.1 Instruments:
• CircuLex Human PCSK9 ELISA kit (MBL: CY-8079); • DMEM (Gibco: 31966-021) • FBS (Sigma: S5394) • Compound plate (Thermo: 1353506) • Complete culture medium: DMEM+10% FBS+1×P/S; • Experimental culture medium: DMEM+10% FBS • Cell strain: HepG2 (ATCC: HB-8065)
A self-adhesive seal was applied, the plate was placed on a plate shaker at room temperature, gently shaken, uniformly mixed, and incubated for 1 hour. • 11) The plate was placed on the plate washer, the washing liquid was set to 350 μL per well, and the plate was washed 4 times repeatedly. • 12) 100 μL/well of an HRP-conjugated detection antibody was added, a self-adhesive seal was applied, and the plate was placed on the plate shaker, well mixed uniformly, and incubated for 1 hour. • 13) The plate was placed on the plate washer, the washing liquid was set to 350 μL per well, and the plate was washed 4 times repeatedly. • 14) 100 μL/well of Substrate reagent was added, and the plate was placed in the dark, applied with a self-adhesive seal, placed on the plate shaker, well mixed uniformly, and incubated for 10-20 minutes. • 15) 100 μL/well of Stop solution (1N H2SO4) was added and mixed uniformly. • 16) The optical density (OD) value in each well was measured in sequence at a wavelength of 450 nm by the microplate reader. Detection was carried out within 30 min after the reaction was stopped.
as §1, with “Inhibition rate=(actual” for “Concentration increase %=(actual”, “control*100. According to the inhibition rates corresponding to the different concentrations, IC50 was derived by Graphpad.” for “control*100.”

PCSK9 protein = PCSK9 protein (Homo sapiens (Human), UniProt Q8NBP7); test: Binding experiment: surface plasmon resonance (SPR) binding to PCSK9 protein
Source text: • 1. Experimental objective: To detect the action of compounds to bind PCSK9 protein by a conventional surface plasmon resonance (SPR) method.

[3] = Pharmacokinetic determination in mice (plasma); format: in vivo, C57BL/6J mice; settings: C57 mice, PO administration, 5 mpk; for AUC(0-inf) / half-life / MRT / Cmax: male, C57BL/6J, mouse, 5 mg/kg; for AUC(0-inf): read-out: Area under the curve AUC0-∞; for half-life: read-out: Half-life t1/2 (converted); for MRT: read-out: Mean residence time MRT; for Cmax: read-out: Plasma concentration Cmax
Experimental: C57BL/6J mice were used as test animals to study the pharmacokinetic behavior of the compounds of the present disclosure in mice (plasma) after oral and intravenous administration.
C57 mice, male, purchased from Shanghai Bk Lab Animal Co., Ltd., with animal production license number (SCXK (Shanghai) 2013-0006 NO.311620400001794).
• Preparation of oral drug: 10% Solutol HS15
10 g of Solutol HS15 solid was weighed, dissolved in 90 mL of pure water, uniformly mixed, stirred, and ultrasonically treated to form a clear solution.
The compound of the present disclosure was weighed and dissolved in this solution, uniformly shaken, and ultrasonically treated for 15 minutes to obtain a colorless clear solution with a concentration of 0.5 mg/mL. • Preparation of intravenous drug: 5% DMSO+10% Solutol HS15+85% PBS […]
3 male C57 mice were fasted overnight and then respectively administered PO at a dose of 5 mg/kg and a volume of 10 mL/kg. […]
Before and after administration of mice, 0.04 mL of blood was collected from the orbit at 0.083 (iv), 0.25, 0.5, 1, 2, 4, 8, and 24 hours, and placed in EDTA-K2 test tubes, which was centrifuged at 6000 rpm at 4° C. for 6 min to separate plasma which was stored at −80° C.; and the […] were fed 4 h after administration.
The final determination results were obtained by using an LCMS/MS method.
The main pharmacokinetic parameters were calculated using WinNonlin 6.1.

Chain of PCSK9 secreted by HepG2 cells (Q8NBP7 153-692): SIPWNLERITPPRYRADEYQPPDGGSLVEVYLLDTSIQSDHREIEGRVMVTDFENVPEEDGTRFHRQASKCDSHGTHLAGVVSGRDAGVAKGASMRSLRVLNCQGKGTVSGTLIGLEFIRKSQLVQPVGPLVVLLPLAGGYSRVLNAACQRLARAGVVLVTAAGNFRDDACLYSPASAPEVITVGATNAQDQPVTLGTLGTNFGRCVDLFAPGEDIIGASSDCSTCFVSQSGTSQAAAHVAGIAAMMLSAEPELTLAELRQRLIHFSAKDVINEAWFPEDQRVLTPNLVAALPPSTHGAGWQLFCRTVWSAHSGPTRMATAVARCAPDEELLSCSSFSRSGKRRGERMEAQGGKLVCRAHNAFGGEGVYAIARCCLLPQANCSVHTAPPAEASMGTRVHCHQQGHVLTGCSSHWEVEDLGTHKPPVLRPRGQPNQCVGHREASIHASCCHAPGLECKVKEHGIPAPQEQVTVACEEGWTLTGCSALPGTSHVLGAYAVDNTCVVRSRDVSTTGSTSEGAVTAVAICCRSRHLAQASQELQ
Chain of PCSK9 secreted by HepG2 cells (Q8NBP7 31-152 partner): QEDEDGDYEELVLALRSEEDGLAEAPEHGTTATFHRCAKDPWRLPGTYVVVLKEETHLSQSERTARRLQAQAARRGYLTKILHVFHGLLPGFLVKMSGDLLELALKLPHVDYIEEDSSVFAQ
Chain of PCSK9 protein (Q8NBP7 153-692): as the sequence (Q8NBP7 153-692) above

| IC50 [2] | Structure (SMILES) | LDLR expression level [1] | further results |
| --- | --- | --- | --- |
| 6.3 µM | Fc1cnn2c(-c3ccc(N[C@H]4CC[C@H](Nc5ncc(OC(F)F)cn5)C4)nc3)cccc12 [Example 102, (1S,3S)—N1-(5-(difluoromethoxy)pyrimidin-2-yl)-N^3-(5-(3-fluoropyrazolo[1,5-a]pyridin-7-yl)pyridin-2-yl)cyclopentane-1,3-diamine] | 215% |  |
| 1.2 µM | O=C1c2cccnc2CN1c1ccc(NC2CCC(Nc3ncc(OC(F)(F)F)cn3)C2)nc1 [Example 122, 6-(6-(((1S,3S)-3-((5-(trifluoromethoxy)pyrimidin-2-yl)amino)cyclopentylamino)pyridin-3-yl)-6,7-dihydro-5H-pyrrolo[3,4-b]pyridin-5-one] |  | Kd (PCSK9 protein): 0.0022 µM; Area under the curve AUC0-∞ [3]: 13239 ng·h/mL; Half-life t1/2 [3]: 3.2 h; Mean residence time MRT [3]: 4.5 h; Plasma concentration Cmax [3]: 2333 ng/mL; Time to peak tmax [3]: 0.5 h |
| 24.5 µM | O=C1c2cccnc2CN1c1ccc(N[C@H]2CC[C@H](Nc3ncc(C(F)(F)F)nn3)C2)nc1 [Example 145] |  | Kd (PCSK9 protein): 0.0032 µM; Time to peak tmax [3]: 0.5 h; AUC(0-inf) [3]: 12200 ng·h/mL; half-life [3]: 3.8 h; MRT [3]: 4.6 h; Cmax [3]: 2370 ng/mL |
| 19.9 µM | O=C1c2nc(C(F)(F)F)ccc2CN1c1ccc(N[C@H]2CC[C@H](Nc3nc4cc(F)ccn4n3)C2)nc1 [Example 155, 6-(6-(((1S,3S)-3-((7-fluoro-[1,2,4]triazolo[1,5-a]pyridin-2-yl)amino)cyclopentyl)amino)pyridin-3-yl)-2-(trifluoromethyl)-5,6-dihydro-7H-pyrrolo[3,4-b]pyridin-7-one] |  | Kd (PCSK9 protein): 0.0028 µM; Time to peak tmax [3]: 0.5 h; AUC(0-inf) [3]: 25500 ng·h/mL; half-life [3]: 5.9 h; MRT [3]: 1.9 h; Cmax [3]: 10000 ng/mL |
| 5.9 µM | O=C1c2nc(C(F)(F)F)ccc2CN1c1ccc(N[C@H]2CC[C@H](Nc3ncc(C4CC4)nn3)C2)nc1 [Example 159, 6-(6-(((1S,3S)-3-((6-cyclopropyl-1,2,4-triazin-3-yl)amino)cyclopentyl)amino)pyridin-3-yl)-2-(trifluoromethyl)-5,6-dihydro-7H-pyrrolo[3,4-b]pyridin-7-one] | 105% |  |
| 2.8 µM | CC(C)(C)c1ccc2c(n1)C(=O)N(c1ccc(N[C@H]3CC[C@H](Nc4nc5cc(F)ccn5n4)C3)nc1)C2 [Example 164, 2-(Tert-butyl)-6-(6-(((1S,3S)-3-((7-fluoro-[1,2,4]triazolo[1,5-a]pyridin-2-yl)amino)cyclopentyl)amino)pyridin-3-yl)-5,6-dihydro-7H-pyrrolo[3,4-b]pyridin-7-one] | 254% |  |

Second part, the compound before the results:

| Structure (SMILES) | IC50 [2] | LDLR expression level [1] | further results |
| --- | --- | --- | --- |
| O=c1c(-c2ccc(N[C@H]3CC[C@H](Nc4ncc(OC(F)F)cn4)C3)nc2)ccc2ccccn12 [Example 47] | 18 µM | 859% |  |
| FC(F)Oc1cnc(N[C@H]2CC[C@H](Nc3ccc(-c4cccc5ccnn45)cn3)C2)nc1 [Example 52, (1S,3S)—N1-(5-(difluoromethoxy)pyrimidin-2-yl)-N3-(5-(pyrazolo[1,5-a]pyridin-7-yl)pyridin-2-yl)cyclopentane-1,3-diamine] | 11 µM | 278% |  |
| FC(F)Oc1cnc(N[C@H]2CC[C@H](Nc3ccc(-c4cccn5ccnc45)cn3)C2)nc1 [Example 53] | 24.1 µM | 175% |  |
| O=C1c2ccncc2CN1c1ccc(N[C@H]2CC[C@H](Nc3ncc(OC(F)F)cn3)C2)nc1 [Example 76, 2-(6-(((1S,3S)-3-((5-(difluoromethoxy)pyrimidin-2-yl)amino)cyclopentyl)amino)pyridin-3-yl)-2,3-dihydro-1H-pyrrolo[3,4-c]pyridin-1-one] | 12.1 µM | 156% |  |
| O=S1(=O)CCCCN1c1ccc(N[C@H]2CC[C@H](Nc3ncc(OC(F)F)cn3)C2)nc1 [Example 92, 2-(6-(((1S,3S)-3-((5-(difluoromethoxy)pyrimidin-2-yl)amino)cyclopentyl)amino)pyridin-3-yl)-1,4-butanesulfolactam] | 16.3 µM | 105% |  |
| N#Cc1cnn2c(-c3ccc(N[C@H]4CC[C@H](Nc5ncc(OC(F)F)cn5)C4)nc3)cccc12 [Example 99, 7-(6-(((1S,3S)-3-((5-(difluoromethoxy)pyrimidin-2-yl)amino)cyclopentyl)amino)-3-yl) pyrazolo[1,5-a]pyridine-3-carbonitrile] | 2.6 µM | 274% |  |
